Measurements as given in the NIST ThermoML archive (doi:10.1016/j.tca.2009.12.001).

Assays:
[1] = refractive index (Na D-line) (dimensionless); mn = molality of the nth substance listed, in mol/kg; conditions: 303.15 K, 101 kPa, Liquid, Standard Abbe refractometry
[2] = cn = amount concentration of the nth substance listed, in mol/dm3; conditions: 101 kPa, Liquid; for viscosity: Capillary tube (Ostwald / Ubbelohde) method; for mass density: Pycnometric method
[3] = mn = molality of the nth substance listed, in mol/kg; conditions: 303.15 K, 101 kPa, Liquid, Linear variable-path acoustic interferometer
[4] = refractive index (Na D-line) (dimensionless); wn = mass fraction of the nth substance listed; conditions: 303.15 K, 101 kPa, Liquid, Standard Abbe refractometry
[5] = wn = mass fraction of the nth substance listed; conditions: 101 kPa, Liquid; for viscosity: Capillary tube (Ostwald / Ubbelohde) method; for speed of sound: Linear variable-path acoustic interferometer; for mass density: Pycnometric method
[6] = 101 kPa, Liquid; for viscosity: Capillary tube (Ostwald / Ubbelohde) method; for mass density: Pycnometric method
[7] = refractive index (Na D-line) (dimensionless); conditions: 303.15 K; 101.33 kPa; Liquid; Standard Abbe refractometry

CC(C)[C@@H]1CC[C@@H](C)C[C@H]1O [DL-menthol] + CC(C)O
Conditions	refractive index, [1]	speed of sound, [3] [m/s]
m1 = 0.0323	1.3741	1135.7
m1 = 0.0453	1.3744	1138.2
m1 = 0.0584	1.3747	1141.2
m1 = 0.0715	1.375	1144.4
m1 = 0.0978	1.3755	1151.1
m1 = 0.111	1.3757	1154.2

[2]
Conditions	mass density [kg/m3]	viscosity [mPa·s]
303.15 K, c1 = 0.025	777.6	1.757
303.15 K, c1 = 0.035	777.8	1.761
303.15 K, c1 = 0.045	778	1.766
303.15 K, c1 = 0.055	778.3	1.771
303.15 K, c1 = 0.075	778.8	1.781
303.15 K, c1 = 0.085	779.1	1.785
313.15 K, c1 = 0.0247	768.8	1.34
313.15 K, c1 = 0.0346	769	1.344
313.15 K, c1 = 0.0445	769.2	1.349
313.15 K, c1 = 0.0544	769.5	1.355
313.15 K, c1 = 0.0742	770	1.364
313.15 K, c1 = 0.084	770.3	1.368
323.15 K, c1 = 0.0243	756.4	1.012
323.15 K, c1 = 0.034	756.6	1.017
323.15 K, c1 = 0.0438	756.8	1.022
323.15 K, c1 = 0.0535	757.1	1.026
323.15 K, c1 = 0.073	757.7	1.034
323.15 K, c1 = 0.0827	758	1.039

COC(=O)c1ccccc1O [methyl 2-hydroxybenzoate] + CC(C)O
[4]
Conditions	refractive index
w1 = 0.05	1.3791
w1 = 0.1	1.3852
w1 = 0.15	1.3912

[5]
Conditions	mass density, 303.15 K [kg/m3]	mass density, 313.15 K [kg/m3]	mass density, 323.15 K [kg/m3]	speed of sound, 303.15 K [m/s]	viscosity, 303.15 K [mPa·s]	viscosity, 313.15 K [mPa·s]	viscosity, 323.15 K [mPa·s]
w1 = 0.05	790.9	782.8	770.3	1146.8	1.798	1.379	1.048
w1 = 0.1	805.3	794.3	785.1	1170.6	1.846	1.437	1.103
w1 = 0.15	822.4	812	799.3	1197.7	1.961	1.56	1.227

CC(C)O [propan-2-ol]
[6]
Conditions	mass density [kg/m3]	viscosity [mPa·s]
303.15 K	777.1	1.747
313.15 K	768.4	1.33
323.15 K	756	1.003

Conditions	speed of sound [m/s]
[6], 303.15 K, Linear variable-path acoustic interferometer	1130.6

Conditions	refractive index
[7]	1.3736

CC(C)O [propan-2-ol] + COC(=O)c1ccccc1O
Conditions	refractive index
[4], w2 = 0	1.3736

[5], w2 = 0
Conditions	mass density [kg/m3]	speed of sound [m/s]	viscosity [mPa·s]
303.15 K	777.1	1130.6	1.747
313.15 K	768.4	–	1.33
323.15 K	756	–	1.003
